The record followed here is PMC9186412, “Rational Framework for the Design of Trp- and Arg-Rich Peptide Antibiotics Against Multidrug-Resistant Bacteria” (Frontiers in Microbiology, 2022).

In test [1] the test system is ESKAPE pathogens and Escherichia coli. Conditions: initial test strains; MHB2. The protocol:
(§1) Bacteria were incubated with each of the indicated peptides in MHB2. […] To assess bactericidal properties of the peptide, the assay was modified by using 15% fetal bovine serum (FBS, for a more physiologically relevant test condition) mixed with 25% MHB2 and 60% PBS. […] Data were analyzed using GraphPad Prism software.

The subject of the next test is S. aureus. The test is described as follows: microbe, parasite or virus in culture. The format is cell-based. As to the method:
Bacterial clinical isolates, used for initial screening and in previous studies ([Deslouches et al., 2013]; [Lin et al., 2018]), were anonymously provided by the clinical microbiology laboratory of the University of Pittsburgh medical Center. The panel used for secondary screening was from [CDC (2013)] (Supplementary Table 3), with resistance profiles data. Bacteria are stored in lock-secured –80°C freezer and typically retrieved by obtaining single colonies on agar plates prior for subsequent liquid broth cultures. Suspensions of test bacteria were prepared from log phase of growth by diluting overnight cultures at 1:100 with fresh cation-adjusted MHB (MHB2, Millipore Sigma, United States) and incubating for additional 3–4 h. Bacteria were spun at 3,000 × g for 10 min and the pellet resuspended in test condition media (Millipore Sigma, United States) to determine bacterial turbidity using a Den-1B densitometer (Grant Instruments, United States) at 0.5 McFarland (unit of bacterial density) corresponding to […].
To examine antibacterial activity, we used minor modifications of a standard growth inhibition assay endorsed by the Clinical and Laboratory Standards Institute (CLSI), as previously described ([Deslouches et al., 2013]). Bacteria were incubated with each of the indicated peptides in MHB2. The bacterial cells were kept in an incubator for 18 h at 37°C, which is linked to a robotic system that feeds a plate reader every hour with one of 8 × 96-well plates. This set-up allows the collection of growth kinetic data at A 570 (absorbance at 570 nm) to examine growth inhibition in real time (BioTek Instruments, United States). […] The assays are typically repeated a second time. If the MIC is different, a third experimental trial is performed to confirm the MIC. To assess bactericidal properties of the peptide, the assay was modified by using 15% fetal bovine serum (FBS, for a more physiologically relevant test condition) mixed with 25% MHB2 and 60% PBS. Bacterial cells (colony forming unit/mL or CFU/mL) were enumerated after incubating treated bacteria for 3 h and plating serially diluted samples on broth agar medium at 37°C overnight. Minimum bactericidal concentration (MBC) was determined as the peptide concentration at which complete bacterial killing was observed. […] Data were analyzed using GraphPad Prism software.

For test [2], the system named is P. aeruginosa strain PA239. The test is described as follows: Bactericidal assay (MBC) in FBS-containing medium FMP. The test is classed as cell-based. Conditions: within 3h of incubation. The protocol:
as §1

Where a SMILES comes first, the peptide text is derived from it. Bridges are numbered along the chain shown (N, C = ends). [ ]: non-standard residue; d: D form. The star is where a group is joined. X1 = CC[C@H](C)CCCCC(=O)*; Dab = NCC[C@H](N)C(=O)O

With `CC[C@H](C)CCCCC(=O)N[C@@H](CCN)C(=O)N[C@H](C(=O)N[C@@H](CCN)C(=O)N[C@H]1CCNC(=O)[C@H]([C@@H](C)O)NC(=O)[C@H](CCN)NC(=O)[C@H](CCN)NC(=O)[C@H](CC(C)C)NC(=O)[C@@H](CC(C)C)NC(=O)[C@H](CCN)NC1=O)[C@@H](C)O` [Colistin, reference compound] (X1-[Dab]T[Dab][Dab][Dab][dL]L[Dab][Dab]T; lactam 4-C (inferred); N-terminus assumed), in test [1], the “activity against the GPB strains” value is “inactive”. Further, the MIC against S. aureus (strain SA461, CDC clinical strain, confirmed by a second or third experimental trial) is recorded as more than 16 µM; against S. aureus (strain SA462, CDC clinical strain, confirmed by a second or third experimental trial) it was more than 16 µM; with S. aureus (strain SA463, CDC clinical strain, confirmed by a second or third experimental trial), more than 16 µM; with S. aureus (strain SA561, CDC clinical strain, confirmed by a second or third experimental trial) it was more than 16 µM; against S. aureus (strain SA12212, UPMC, MHB2, 18 h, 37°C), more than 16 µM; against S. aureus (strain SA18710, UPMC, MHB2, 18 h, 37°C) it was more than 16 µM. The MIC against S. aureus (strain SA49775, MHB2, 18 h, 37°C) is more than 16 µM; against S. aureus (strain SA-US300, MHB2, 18 h, 37°C), more than 16 µM.

As for `NC[C@H]1O[C@H](O[C@H]2[C@H](O)[C@@H](O[C@H]3O[C@H](CO)[C@@H](O)[C@H](N)[C@H]3O)[C@H](N)C[C@@H]2N)[C@H](N)C[C@@H]1O` [Tobramycin, reference compound], the bacterial killing result in test [2] was “did not display any substantial bacterial killing”.
